In brackets after ≈: the same amount, converted by molar mass. Like-named read-outs stand apart in the source and are kept apart here.
Tests used:
[1] = tested on: Plasmodium falciparum, chloroquine-resistant strain RFCR3; test: activity against P. falciparum in vitro, strain RFCR3; type: cell-based; settings: chloroquine-resistant strain RFCR3, 48 h-72 h, read-out: IC50 (50% growth inhibition)
Outline: (§1)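 IC50 values come from logit regression of radiolabelled hypoxanthine incorporation after 48 h-72 h drug exposure of asynchronous P. falciparum in human A+ red cells (0.7% parasitemia).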

[2] = tested on: Plasmodium falciparum, chloroquine-resistant strain 7G8; test: activity against P. falciparum in vitro, strain 7G8; type: cell-based; settings: chloroquine-resistant strain 7G8, 48 h-72 h, read-out: IC50 (50% growth inhibition)
Outline: as §1

[3] = tested on: Plasmodium falciparum, chloroquine-resistant strain Indo; test: activity against P. falciparum in vitro, strain Indo; type: cell-based; settings: chloroquine-resistant strain Indo, 48 h-72 h, read-out: IC50 (50% growth inhibition)
Outline: as §1

[4] = tested on: Plasmodium falciparum, chloroquine-resistant strain K1; test: activity against P. falciparum in vitro, strain K1; type: cell-based; settings: Plasmodium falciparum; chloroquine-resistant strain K1; 48 h-72 h; read-out: IC50 (50% growth inhibition)
Outline: as §1

[5] = tested on: Plasmodium falciparum, chloroquine-sensitive strain HB3; test: activity against P. falciparum in vitro, strain HB3; type: cell-based; settings: chloroquine-sensitive strain HB3, 48 h-72 h, read-out: IC50 (50% growth inhibition)
Outline: as §1

[6] = tested on: Plasmodium falciparum, chloroquine-resistant strain W2; test: activity against P. falciparum in vitro, strain W2; type: cell-based; settings: chloroquine-resistant strain W2, 48 h-72 h, read-out: IC50 (50% growth inhibition)
Outline: as §1

[7] = tested on: Plasmodium falciparum, chloroquine-resistant strain W2 Mef; test: activity against P. falciparum in vitro, strain W2 Mef; type: cell-based; settings: 48 h-72 h, read-out: IC50 (50% growth inhibition)
Outline: as §1

[8] = tested on: Plasmodium falciparum, chloroquine-sensitive strain RFMEF3; test: activity against P. falciparum in vitro, strain RFMEF3; type: cell-based; settings: chloroquine-sensitive strain RFMEF3, 48 h-72 h, read-out: IC50 (50% growth inhibition)
Method: (§2) Test method for the determination of the activity against P. falciparum in vitro
(§3) The preparations of the present invention were tested on intraerythrocytary stages of P. falciparum from asynchronous cultures according to the method of Desjardin et al. (Desjardins, R. E. et al: Quantitative assessment of antimalarial activity in vitro by a semiautomated microdilution technique. Antimicrob. Agents Chemother. 16, 710-718, (1979)).
(§4) The culture medium consisted of RPMI 1640 with the addition of 25 mM HEPES, 25 mM NaHCO3, […] neomycin and 10% human serum (A^+). Human-A^+ erythrocytes were used as the P. falciparum host cells. The parasites were maintained at 37° C. in an atmosphere of 3% O2, 4% CO2, 93% N2 and at 95% relative humidity.
(§5) In order to determine the activity, the preparations were dissolved in DMSO, pre-diluted in the culture medium to a suitable starting concentration and subsequently titrated-out into microtitre plates in the 2nd stage over 6-7 steps. After the addition of the parasite culture (0.7% parasitemia in 2.5% erythrocyte suspension), the test plates were incubated under the conditions given above for 48 h-72 h. The parasite growth in the different preparation concentrations was determined using [G-^3 H]-hypoxanthin incorporation compared to untreated control cultures on the same test plates. The 50% growth inhibition (IC50) was calculated according to logit regression analysis from the resulting dosage-activity curve.
(§6) The preparations were tested on at least one chloroquine-resistant and one chloroquine-sensitive P. falciparum strain. Additional sensitive and resistant strains were also included for further characterization.
(§7) Table 1 below contains the IC50 values measured in vitro for the growth inhibition of chloroquine-sensitive and chloroquine-resistant strains of the human pathogenic Plasmodium falciparum.

[9] = tested on: Plasmodium falciparum, chloroquine-sensitive strain NF54; test: activity against P. falciparum in vitro, strain NF54; type: cell-based; settings: Plasmodium falciparum; chloroquine-sensitive strain NF54; 48 h-72 h; read-out: IC50 (50% growth inhibition)
Outline: as §1

[10] = tested on: Plasmodium falciparum, chloroquine-sensitive strain Ro7 3; test: activity against P. falciparum in vitro, strain Ro7 3; type: cell-based; settings: chloroquine-sensitive strain Ro7 3, 48 h-72 h, read-out: IC50 (50% growth inhibition)
Method: as §2, §3, §4, §5, §6, §7

[11] = tested on: Plasmodium falciparum, chloroquine-resistant strain ItG2 F6; test: activity against P. falciparum in vitro, strain ItG2 F6; type: cell-based; settings: chloroquine-resistant strain ItG2 F6, 48 h-72 h, read-out: IC50 (50% growth inhibition)
Outline: as §1

[12] = tested on: Plasmodium falciparum, chloroquine-sensitive strain FCH5C2; test: activity against P. falciparum in vitro, strain FCH5C2; type: cell-based; settings: chloroquine-sensitive strain FCH5C2, 48 h-72 h, read-out: IC50 (50% growth inhibition)
Outline: as §1

[13] = tested on: Plasmodium berghei (strain ANKA); test: activity against Plasmodium berghei in vivo (infected mice); settings: mice; for ED50: single administration po, dose reducing average erythrocyte infection rate by 50%, read-out: ED50 (po); for inhibition in vivo at 10 mg/kg: 48 hours after treatment (D+3)
Method: Test method for the determination of the activity against Plasmodium berghei in vivo
The preparations according to the present invention were tested on mice infected with malaria pathogens (Plasmodium berghei). Male albino mice (IBM:MORO(SPF), FUELLINSDORF) weighing about 25 g were used as the test animals. They were kept in climatized rooms at 21°-22° C. in groups of 5 animals per cage. They received ad libitum a diet feed with a low PABA content ("NAFAG FUTTER" No. 9009 PAB-45, PABA content 45 mg/kg) and drinking water. On the first day of the test (D0) the test animals were infected with Plasmodium berghei (strain ANKA). For this there was used heparinized blood of a donor mouse with about 30% parasitemia, which was diluted with physiological saline such that it contains 10^8 parasitized erythrocytes per ml. 0.2 ml of this suspension was injected intravenously (i.v.) into the mice to be treated and into the control mice. In untreated control animals the parasitemia normally reaches 30-40% on the third day after the infection (D+3) and the test animals die between days +5 and +7.
The substances to be tested were dissolved or suspended in distilled water or in a mixture of 7% Tween 80, 3% alcohol (96%) and water. Usually, 0.25 ml of this solution or suspension was administered once subcutaneously and perorally to groups of 5 test animals. Treatment was effected 24 hours after the infection. 10 control animals were treated in the same manner with solvent or suspension medium per test.
All substances were tested in a first test in a single dosage of 10 mg/kg. Only those substances which in this test (10 mg/kg) had shown a parasitaemia reduction of 90% were used for the titration.
48 hours after the treatment (D+3), blood smears were prepared from all animals using blood from tail veins and were stained with Giemsa. The average erythrocyte infection rate (parasitemia in %) in the control groups as well as in the groups which had been treated with the test compounds was determined by counting under a microscope. The difference in the average values of the infection rates of control group (100%) and treated groups was calculated and expressed as a percentage reduction (GI %). The ED50 or ED90 was determined mathematically by means of the JMP programme (nonlinear fit). The ED50 (ED90) in mg/kg is that dose which after single administration reduces the average erythrocyte infection rate by 50% (90%) in comparison to the control group.
Table 2 below contains data with respect to the activity measured against Plasmodium berghei in mice: GI % is the percentage reduction in the parasitemia after a single dose of 10 mg/kg of the test substance administered perorally (po) or subcutaneously (sc); ED50 and ED90 are the effective doses of the test substance administered perorally or subcutaneously.

[14] = single dose 10 mg/kg po, read-out: GI % at 10 mg/kg (po): percentage reduction in the parasitemia
[15] = single dose 10 mg/kg sc, read-out: GI % at 10 mg/kg (sc): percentage reduction in the parasitemia

| Compound | IC50 [1] [µg/mL] | IC50 [2] [ng/mL] | IC50 [3] [ng/mL] | IC50 [4] [µg/mL] | IC50 [5] [ng/mL] | IC50 [6] [µg/mL] | IC50 [7] [ng/mL] | IC50 [8] [ng/mL] | IC50 [9] [ng/mL] | IC50 [10] [ng/mL] | IC50 [11] [ng/mL] | IC50 [12] [ng/mL] | ED50 [13] [mg/kg] | inhibition in vivo at 10 mg/kg [13, 14] [%] | inhibition in vivo at 10 mg/kg [13, 15] [%] |
| --- | --- | --- | --- | --- | --- | --- | --- | --- | --- | --- | --- | --- | --- | --- | --- |
| CC(CN(C)C)Nc1ccnc2cc(Cl)ccc12 (racemic) [Example 1, (RS)-N2-(7-Chloro-quinolin-4-yl)-N1,N1-dimethyl-propane-1,2-diamine] | 0.015 (≈ 0.0569 µM) | 9 (≈ 0.0341 µM) | 8 (≈ 0.0303 µM) | 0.009 (≈ 0.0341 µM) | 7 (≈ 0.0265 µM) | 0.009 (≈ 0.0341 µM) | 7 (≈ 0.0265 µM) | 7 (≈ 0.0265 µM) | 4 (≈ 0.0152 µM) | 5 (≈ 0.019 µM) | 4 (≈ 0.0152 µM) | 8 (≈ 0.0303 µM) | 2.3 | 99.9 | 99.9 |
| CCN(CC)CC(C)Nc1ccnc2cc(Cl)ccc12 (racemic) [Example 2, (RS)-N2-(7-Chloro-quinolin-4-yl)-N1,N1-diethyl-propane-1,2-diamine] | 0.008 (≈ 0.0274 µM) | 8 (≈ 0.0274 µM) | 6 (≈ 0.0206 µM) | 0.014 (≈ 0.048 µM) | 7 (≈ 0.024 µM) | 0.008 (≈ 0.0274 µM) | 9 (≈ 0.0308 µM) | 7 (≈ 0.024 µM) | 7 (≈ 0.024 µM) | 6 (≈ 0.0206 µM) | 5 (≈ 0.0171 µM) | 7 (≈ 0.024 µM) | 3.2 | 99.8 | 99.9 |
| CCN(CC)[C@@H]1CCCC[C@H]1Nc1ccnc2cc(Cl)ccc12 (racemic) [Example 9, (1RS,2RS)-N1-(7-Chloro-quinolin-4-yl)-N2,N2-diethyl-cyclohexane-1,2-diamine] | 0.017 (≈ 0.0512 µM) | 30 (≈ 0.0904 µM) | 18 (≈ 0.0542 µM) | 0.032 (≈ 0.0964 µM) | 14 (≈ 0.0422 µM) | 0.031 (≈ 0.0934 µM) | 25 (≈ 0.0753 µM) | 12 (≈ 0.0362 µM) | 11 (≈ 0.0331 µM) | 11 (≈ 0.0331 µM) | 17 (≈ 0.0512 µM) | 15 (≈ 0.0452 µM) | 4.4 | 99 | 99.6 |
| Clc1ccc2c(N[C@@H]3CCCC[C@H]3N3CCCC3)ccnc2c1 (racemic) [Example 10, (1RS,2RS)-(7-Chloro-quinolin-4-yl)-(2pyrrolidin-1-yl-cyclohexyl)-amine] | 0.018 (≈ 0.0546 µM) | 15 (≈ 0.0455 µM) | 16 (≈ 0.0485 µM) | 0.017 (≈ 0.0515 µM) | 8 (≈ 0.0243 µM) | 0.013 (≈ 0.0394 µM) | 15 (≈ 0.0455 µM) | 6 (≈ 0.0182 µM) | 7 (≈ 0.0212 µM) | 7 (≈ 0.0212 µM) | 7 (≈ 0.0212 µM) | 5 (≈ 0.0152 µM) | 6.4 | 99 | 99 |
| CCN(CC)[C@@H]1CCC[C@H]1Nc1ccnc2cc(Cl)ccc12 (racemic) [Example 11, (1RS,2RS)-N1-(7-Chloro-quinolin-4-yl)-N2,N2-diethyl-cyclopentane-1,2-diamine] | 0.013 (≈ 0.0409 µM) | 9 (≈ 0.0283 µM) | 10 (≈ 0.0315 µM) | 0.018 (≈ 0.0566 µM) | 6 (≈ 0.0189 µM) | 0.015 (≈ 0.0472 µM) | 9 (≈ 0.0283 µM) | 6 (≈ 0.0189 µM) | 5 (≈ 0.0157 µM) | 5 (≈ 0.0157 µM) | 6 (≈ 0.0189 µM) | 7 (≈ 0.022 µM) | 2.2 | 99.9 | 99.9 |
| CN1CCCC(Nc2ccnc3cc(Cl)ccc23)C1 (racemic) [Example 19a, (RS)-(7-Chloro-quinolin-4-yl)-(1-methyl-piperidin-3-yl)-amine] | 0.011 (≈ 0.0399 µM) | 8 (≈ 0.029 µM) | 8 (≈ 0.029 µM) | 0.009 (≈ 0.0326 µM) | 6 (≈ 0.0218 µM) | 0.01 (≈ 0.0363 µM) | 6 (≈ 0.0218 µM) | 7 (≈ 0.0254 µM) | 6 (≈ 0.0218 µM) | 5 (≈ 0.0181 µM) | 5 (≈ 0.0181 µM) | 7 (≈ 0.0254 µM) | 2.4 | 99.9 | 99.9 |

From patent US5596002A, “Method of treating chloroquine-resistant malaria with aminoquinoline derivatives” (Hoffmann-La Roche Inc., priority 1993, dated 1997)
